In the CheMixHub viscosity set:

Assay: xn = mol fraction of the nth substance listed

CC(N)C(=O)[O-].CCCCn1cc[n+](C)c1 + O
Conditions	viscosity [mPa·s]
318.15 K, 100.3 kPa, x1 = 0.01781	1.114

COC(C)=O + O
298.15 K, 101 kPa
Conditions	viscosity [mPa·s]
x1 = 0.007776	0.9505
x1 = 0.01059	0.9711
x1 = 0.01834	1.021
x1 = 0.02351	1.05
x1 = 0.0294	1.087
x1 = 0.03745	1.118
x1 = 0.03898	1.127
x1 = 0.04509	1.146
x1 = 0.7729	0.4311
x1 = 0.8213	0.4084
x1 = 0.8787	0.3879
x1 = 0.9325	0.372

O.O.O=C(O)c1cc(S(=O)(=O)O)ccc1O + O
viscosity [mPa·s], 101 kPa
Conditions	x1 = 0.0004118	x1 = 0.0005979	x1 = 0.0007679	x1 = 0.001076
298.15 K	0.8998	0.9032	0.907	0.9134
308.15 K	0.7268	0.7304	0.7332	0.7386
318.15 K	0.597	0.6063	0.6087	0.6128

COC(C)=O + O=C1CCCO1
298.15 K, 101.33 kPa
Conditions	viscosity [mPa·s]
x1 = 0.0471	1.585
x1 = 0.1055	1.467
x1 = 0.1514	1.365
x1 = 0.2015	1.254
x1 = 0.2517	1.16
x1 = 0.293	1.091
x1 = 0.4005	0.902
x1 = 0.4297	0.858
x1 = 0.4981	0.746
x1 = 0.5486	0.678
x1 = 0.5907	0.632
x1 = 0.701	0.52
x1 = 0.745	0.485
x1 = 0.7921	0.446
x1 = 0.8471	0.416
x1 = 0.9005	0.378
x1 = 0.9509	0.369

COCCOC + O=Cc1ccccc1
298.15 K, 101 kPa
Conditions	viscosity [mPa·s]
x1 = 0.1157	1.225
x1 = 0.2274	1.082
x1 = 0.3354	0.954
x1 = 0.4398	0.841
x1 = 0.5408	0.741
x1 = 0.6385	0.655
x1 = 0.7332	0.58
x1 = 0.8249	0.515
x1 = 0.9138	0.458

OCCNCCO + O=S1(=O)CCCC1
viscosity [mPa·s], 101 kPa
Conditions	x2 = 0.0999	x2 = 0.2999	x2 = 0.4687	x2 = 0.6712	x2 = 0.8322
303.15 K	262.7	125.4	63.49	14.99	12.62
323.15 K	73.14	32.73	15.33	9.455	7.362

COCCOC + O=[N+]([O-])c1ccccc1
298.15 K, 101 kPa
Conditions	viscosity [mPa·s]
x1 = 0.1318	1.472
x1 = 0.2546	1.27
x1 = 0.3693	1.087
x1 = 0.4766	0.929
x1 = 0.5774	0.793
x1 = 0.672	0.688
x1 = 0.7612	0.599
x1 = 0.8453	0.523
x1 = 0.9248	0.462

O=C(O)c1ccccc1 + O=[N+]([O-])c1ccccc1
viscosity [mPa·s], 101 kPa
Conditions	x1 = 0.09745	x1 = 0.108	x1 = 0.139	x1 = 0.1489	x1 = 0.175
308.15 K	1.746	–	–	–	–
313.15 K	1.626	1.626	1.675	1.746	1.746
318.15 K	1.503	–	–	1.611	–
323.15 K	1.397	–	–	1.492	–

c1ccc2ncccc2c1 + OCC(F)(F)F
viscosity [mPa·s], 101.33 kPa
Conditions	298.15 K	303.15 K	308.15 K	313.15 K	318.15 K	323.15 K
x1 = 0.16	2.34	2.05	1.84	1.62	1.46	1.32
x1 = 0.34	2.91	2.57	2.27	2.04	1.83	1.65
x1 = 0.54	3.14	2.79	2.46	2.21	2	1.82
x1 = 0.76	3.17	2.8	2.49	2.25	2.05	1.87

COc1ccccc1N + OCCCl
viscosity [mPa·s], 100 kPa
Conditions	x1 = 0.1041	x1 = 0.2448	x1 = 0.3401	x1 = 0.4623	x1 = 0.5621	x1 = 0.6825	x1 = 0.7612	x1 = 0.8484	x1 = 0.9217
303.15 K	2.83	3.17	3.4	3.69	3.92	4.2	4.38	4.58	4.75
308.15 K	2.5	2.83	3.05	3.33	3.55	3.82	4	4.19	4.35
313.15 K	2.11	2.44	2.67	2.96	3.19	3.47	3.65	3.85	4.01
318.15 K	1.82	2.15	2.38	2.66	2.9	3.17	3.35	3.55	3.71

COC(C)=O + OCCO
viscosity [mPa·s], 101.33 kPa
Conditions	x2 = 0.1014	x2 = 0.1953	x2 = 0.2981	x2 = 0.3974	x2 = 0.5029	x2 = 0.5992	x2 = 0.6997	x2 = 0.799	x2 = 0.9639
298.15 K	0.543	0.645	0.829	–	1.85	2.329	3.499	5.578	9.086
303.15 K	0.507	0.599	0.756	1.008	1.633	2.026	3.025	4.658	7.673
308.15 K	0.473	0.561	0.701	0.921	1.439	1.781	2.643	3.989	6.317

OCCNCCO + OCCO
298 K, 101.3 kPa
Conditions	viscosity [mPa·s]
x1 = 0.0049	17.27
x1 = 0.01	17.72
x1 = 0.044	20.95
x1 = 0.07152	25.16
x1 = 0.09514	28.03
x1 = 0.1331	37.15

COc1ccccc1N + OCCc1ccccc1
viscosity [mPa·s], 100 kPa
Conditions	x1 = 0.0957	x1 = 0.1852	x1 = 0.2904	x1 = 0.3921	x1 = 0.4911	x1 = 0.6027	x1 = 0.7023	x1 = 0.8005	x1 = 0.8904
303.15 K	8.66	8.29	7.87	7.45	7.04	6.58	6.17	5.76	5.38
308.15 K	6.95	6.71	6.43	6.16	5.9	5.6	5.33	5.06	4.82
313.15 K	5.91	5.75	5.55	5.36	5.18	4.97	4.77	4.58	4.41
318.15 K	4.89	4.8	4.69	4.58	4.47	4.35	4.23	4.12	4.02

OC[C@H](O)C(O)[C@@H](O)CO + OC[C@@H](O)[C@@H](O)CO
101 kPa, x1 = 0.36
Conditions	viscosity [mPa·s]
293.2 K	1329000
298.2 K	611700
303.2 K	294200
308.1 K	154700
313.2 K	79520
318.2 K	42740
323 K	23480

OC[C@H](O)C(O)[C@@H](O)CO + OC[C@@H](O)[C@H](O)[C@@H](O)CO
Conditions	viscosity [mPa·s]
313 K, 101 kPa, x2 = 0.56	42740

c1ccc2ncccc2c1 + Oc1ccccc1
Conditions	viscosity [mPa·s]
293.25 K, 101 kPa, x2 = 0.101	4.595
293.25 K, 101 kPa, x2 = 0.1895	5.725
293.25 K, 101 kPa, x2 = 0.2876	7.85
293.25 K, 101 kPa, x2 = 0.3677	10.58
293.25 K, 101 kPa, x2 = 0.4518	15.03
293.25 K, 101 kPa, x2 = 0.5297	20.31
293.25 K, 101 kPa, x2 = 0.6094	24.52
293.25 K, 101 kPa, x2 = 0.6758	25.29
293.25 K, 101 kPa, x2 = 0.7465	23.27
293.25 K, 101 kPa, x2 = 0.8203	19.41
293.25 K, 101 kPa, x2 = 0.8731	16.6
293.25 K, 101 kPa, x2 = 0.9409	13.37
298 K, 101.3 kPa, x1 = 0.1054	12.7
298 K, 101.3 kPa, x1 = 0.1999	17.29
298 K, 101.3 kPa, x1 = 0.3001	20.99
298 K, 101.3 kPa, x1 = 0.4004	19.77
298 K, 101.3 kPa, x1 = 0.4996	14.31
298 K, 101.3 kPa, x1 = 0.5998	10.23
298 K, 101.3 kPa, x1 = 0.6997	7.295
298 K, 101.3 kPa, x1 = 0.7997	5.58
298 K, 101.3 kPa, x1 = 0.9023	4.054
303 K, 101.3 kPa, x1 = 0.1054	10.2
303 K, 101.3 kPa, x1 = 0.1999	13.09
303 K, 101.3 kPa, x1 = 0.3001	15.72
303 K, 101.3 kPa, x1 = 0.4004	14.98
303 K, 101.3 kPa, x1 = 0.4996	11.03
303 K, 101.3 kPa, x1 = 0.5998	8.24
303 K, 101.3 kPa, x1 = 0.6997	6.11
303 K, 101.3 kPa, x1 = 0.7997	4.797
303 K, 101.3 kPa, x1 = 0.9023	3.537
303.05 K, 101 kPa, x2 = 0.104	3.645
303.05 K, 101 kPa, x2 = 0.194	4.495
303.05 K, 101 kPa, x2 = 0.2786	5.605
303.05 K, 101 kPa, x2 = 0.3683	7.425
303.05 K, 101 kPa, x2 = 0.4478	9.65
303.05 K, 101 kPa, x2 = 0.5251	12.21
303.05 K, 101 kPa, x2 = 0.6009	14.36
303.05 K, 101 kPa, x2 = 0.672	14.8
303.05 K, 101 kPa, x2 = 0.744	13.44
303.05 K, 101 kPa, x2 = 0.8109	11.77
303.05 K, 101 kPa, x2 = 0.8741	10.1
303.05 K, 101 kPa, x2 = 0.9388	8.44
308 K, 101.3 kPa, x1 = 0.1054	8.195
308 K, 101.3 kPa, x1 = 0.1999	10.47
308 K, 101.3 kPa, x1 = 0.3001	12.4
308 K, 101.3 kPa, x1 = 0.4004	11.87
308 K, 101.3 kPa, x1 = 0.4996	8.92
308 K, 101.3 kPa, x1 = 0.5998	6.902
308 K, 101.3 kPa, x1 = 0.6997	5.266
308 K, 101.3 kPa, x1 = 0.7997	4.143
308 K, 101.3 kPa, x1 = 0.9023	3.095
313 K, 101.3 kPa, x1 = 0.1054	6.728
313 K, 101.3 kPa, x1 = 0.1999	8.655
313 K, 101.3 kPa, x1 = 0.3001	10.08
313 K, 101.3 kPa, x1 = 0.4004	9.694
313 K, 101.3 kPa, x1 = 0.4996	7.31
313 K, 101.3 kPa, x1 = 0.5998	5.796
313 K, 101.3 kPa, x1 = 0.6997	4.553
313 K, 101.3 kPa, x1 = 0.7997	3.608
313 K, 101.3 kPa, x1 = 0.9023	2.718
313.15 K, 101 kPa, x2 = 0.104	2.885
313.15 K, 101 kPa, x2 = 0.194	3.455
313.15 K, 101 kPa, x2 = 0.2786	4.195
313.15 K, 101 kPa, x2 = 0.3683	5.335
313.15 K, 101 kPa, x2 = 0.4478	6.6
313.15 K, 101 kPa, x2 = 0.5251	7.95
313.15 K, 101 kPa, x2 = 0.6009	8.87
313.15 K, 101 kPa, x2 = 0.672	9.04
313.15 K, 101 kPa, x2 = 0.744	8.39
313.15 K, 101 kPa, x2 = 0.8109	7.48
313.15 K, 101 kPa, x2 = 0.8741	6.56
313.15 K, 101 kPa, x2 = 0.9388	5.525
318 K, 101.3 kPa, x1 = 0.1054	5.655
318 K, 101.3 kPa, x1 = 0.1999	7.159
318 K, 101.3 kPa, x1 = 0.3001	8.328
318 K, 101.3 kPa, x1 = 0.4004	8.054
318 K, 101.3 kPa, x1 = 0.4996	5.886
318 K, 101.3 kPa, x1 = 0.5998	4.902
318 K, 101.3 kPa, x1 = 0.6997	3.996
318 K, 101.3 kPa, x1 = 0.7997	3.172
318 K, 101.3 kPa, x1 = 0.9023	2.416
